Results as given in patent US8729081B2, “Compositions and methods for treating alcohol use disorders, pain and other diseases” (VM Discovery Inc., priority 2008, dated 2014).

The compounds below were run against T1, PKCε (h) (Homo sapiens, UniProt Q02156) (assay: In vitro PKCε kinase assay (radiometric, [γ-33P-ATP], HotSpot)). Details: recombinant human PKCε, 10 μM ATP; read-out: IC50 in antagonizing the PKCε.
T1 construct: host or cells: insect cells
T1 sequence (Q02156 1-737): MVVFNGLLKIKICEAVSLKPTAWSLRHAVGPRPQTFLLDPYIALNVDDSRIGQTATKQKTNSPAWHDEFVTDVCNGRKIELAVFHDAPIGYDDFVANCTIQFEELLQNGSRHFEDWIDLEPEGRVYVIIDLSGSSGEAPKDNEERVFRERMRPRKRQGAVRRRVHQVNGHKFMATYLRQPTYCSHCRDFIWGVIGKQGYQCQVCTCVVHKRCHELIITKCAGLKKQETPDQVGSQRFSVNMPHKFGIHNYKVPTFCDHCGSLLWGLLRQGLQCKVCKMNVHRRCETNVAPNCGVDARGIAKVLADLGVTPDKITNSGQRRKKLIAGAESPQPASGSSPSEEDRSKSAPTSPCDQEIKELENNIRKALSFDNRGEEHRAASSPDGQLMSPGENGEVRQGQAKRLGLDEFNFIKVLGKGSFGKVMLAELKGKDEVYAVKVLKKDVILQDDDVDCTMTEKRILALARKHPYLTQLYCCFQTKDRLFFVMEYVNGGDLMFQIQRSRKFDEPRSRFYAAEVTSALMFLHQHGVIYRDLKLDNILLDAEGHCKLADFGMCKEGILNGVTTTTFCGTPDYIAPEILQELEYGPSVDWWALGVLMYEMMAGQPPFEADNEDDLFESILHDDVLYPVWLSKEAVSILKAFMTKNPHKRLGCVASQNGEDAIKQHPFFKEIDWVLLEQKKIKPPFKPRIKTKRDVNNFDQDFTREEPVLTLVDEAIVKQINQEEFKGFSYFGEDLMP
Assay type: biochemical
Procedure: There are many in vitro commercially available and validated bioassays (Ma, H., et al, Expert Opin Drug Discov. 2008 June; 3(6): 607-621 and references therein) which can be used to characterize the activities of compounds of the present invention against PKCε protein kinase. Compounds can be tested against the activity of recombinant PKCε. In a final reaction volume of 25 μL, PKCε (h) (0.4 nM, Human recombinant protein expressed in insect cells. Mw=83.7 kDa) is incubated with kinase buffer (20 mM HEPES-HCl, pH 7.5, 10 mM MgCl2, 1 mM EGTA, 0.02% Brij35, 0.1 mM Na3VO4, 0.02 mg/ml BSA, 2 mM DTT, and 1% DMSO), 0.1 mg/mL phosphatidylserine, 10 μg/mL diacylglycerol, 20 μM S25-PKC peptide substrate (RFARKGSLRQKNV-OH, Mw=1561 Da), 10 mM MgAcetate and 10 μM [γ-33P-ATP] (specific activity approx. 500 cpm/pmol). The reaction is initiated by the addition of the MgATP mix. After incubation for 40 minutes at room temperature, the reaction is stopped by the addition of 5 μL of a 3% phosphoric acid solution. 10 μL of the reaction is then spotted onto a P30 filtermat and washed three times for 5 minutes in 75 mM phosphoric acid and once in methanol prior to drying and scintillation counting Control samples are incubated without inhibitor to measure maximal activity or with the general kinase inhibitor Staurosporine (5 μM) to measure complete inhibition. For each compound the % inhibition can be calculated by the formula, or by curve fits: % Inhibition=(Max activity−Activity with compound)/(Max activity−Activity with Control)*100. Compounds with inhibitory activity are assayed using at least 5 concentrations (1 nM-300 μM). Concentrations are adjusted to generate a complete dose-response curve. Each sample is assayed in duplicate and each experiment is repeated three times. Results are fitted by non-linear regression analysis to a sigmoidal dose-response curve with variable slope to calculate Hill slope, log IC50 and Imax values for each inhibitor, using the program Prism 5 (GraphPad Software, Inc., San Diego, Calif.).
Kinase profiling was performed using HotSpot technology (Reaction Biology Corp. 11 Malvern, Pa., USA). This technology is a radioisotope-based P81 filter-binding assay. Compound of the present invention were dissolved in pure DMSO to make a 10 mM stock, then diluted in pure DMSO to make a serial dilution based on the IC50 ranges. PKCε (h) (0.4 nM, human recombinant protein expressed in insect cells. Mw=83.7 kDa) and substrate (20 μM peptide substrate, [RFARKGSLRQKNV]) were diluted in the reaction buffer (20 mM HEPES-HCl, pH 7.5, 10 mM MgCl2, 1 mM EGTA, 0.02% Brij35, 0.1 mM Na3VO4, 0.02 mg/ml BSA, 2 mM DTT, and 1% DMSO), and then 5 nL of compound was delivered into PKCε (h) and substrate mixture by acoustic technology using Echo 550 (LabCyte Inc., Sunnyvale, Calif.). The reaction was initiated by the addition of [γ-33P-ATP] into the reaction mixture (final concentration was 10 μM) and stopped after at least 40 min incubation at room temperature. The unreacted free 33P-ATP was washed away before detection.
The intrinsic PKCε antagonist activity of a compound which may be used in the present invention may be determined by these assays. […] Such a result is indicative of the intrinsic activity of the compounds in use as antagonists of PKCε.

Structure (SMILES) | IC50
CC(=C1Oc2ccccc2N(Cc2ccc(F)cc2)C1=O)c1ccc(C(=O)NCCCN2CCCCCC2)cc1 (mixture of isomers) [Compound 821, N-[3-(azepan-1-yl)propyl]-4-{(1Z/1E)-1-[4-(4-fluorobenzyl)-3-oxo-3,4-dihydro-2H-1,4-benzoxazin-2-ylidene]ethyl}benzamide] | 10 to 1000 nM
Cc1oc(-c2ccc3c(c2)OCO3)nc1CN1CCC(C(=O)NCCCN2CCCCCC2)CC1 [Compound 949, N-[3-(azepan-1-yl)propyl]-1-{[2-(1,3-benzodioxol-5-yl)-5-methyl-1,3-oxazol-4-yl]methyl}piperidine-4-carboxamide] | 10 to 1000 nM
CC(=C1Oc2ccccc2N(Cc2ccc(F)cc2)C1=O)c1ccc(C(=O)NCCCN2CCOCC2)cc1 (mixture of isomers) [Compound 829, N-4-{(1Z/1E)-1-[4-(4-fluorobenzyl)-3-oxo-3,4-dihydro-2H-1,4-benzoxazin-2-ylidene]ethyl}-N-[3-(morpholin-4-yl)propyl]benzamide] | 10 to 1000 nM
O=C(NCCCN1CCCCCC1)c1ccc(C=C2Sc3ccccc3N(Cc3ccccc3F)C2=O)cc1 (mixture of isomers) [Compound 485, N-[3-(azepan-1-yl)propyl]-4-{(Z/E)-[4-(2-fluorobenzyl)-3-oxo-3,4-dihydro-2H-1,4-benzothiazin-2-ylidene]methyl}benzamide] | 10 to 1000 nM
C/C(=C1/Oc2ccccc2N(Cc2ccc(F)cc2F)C1=O)c1ccc(C(=O)NCCCN2CCOCC2)cc1 [Compound 837, 4-{(1Z/1E)-1-[4-(2,4-difluorobenzyl)-3-oxo-3,4-dihydro-2H-1,4-benzoxazin-2-ylidene]ethyl}-N-[3-(morpholin-4-yl)propyl]benzamide] | 10 to 1000 nM
CN(CCCN1CCOCC1)C(=O)c1ccc(C=C2Oc3ccccc3N(Cc3ccccc3F)C2=O)cc1 (mixture of isomers) [Compound 841, 4-{(Z/E)-[4-(2-fluorobenzyl)-3-oxo-3,4-dihydro-2H-1,4-benzoxazin-2-ylidene]methyl}-N-methyl-N-[3-(morpholin-4-yl)propyl]benzamide] | 10 to 1000 nM
O=C(NCCCc1ccncc1)c1ccc(C=C2Sc3ccccc3N(Cc3ccccc3F)C2=O)cc1 (mixture of isomers) [Compound 825, 4-{(Z/E)-[4-(2-fluorobenzyl)-3-oxo-3,4-dihydro-2H-1,4-benzothiazin-2-ylidene]methyl}-N-[3-(pyridin-4-yl)propyl]benzamide] | 10 to 1000 nM
Cc1oc(-c2ccc(Cl)cc2)nc1CN1CCC(C(=O)NCCCN2CCCCCC2)CC1 [Compound 901, N-[3-(azepan-1-yl)propyl]-1-{[2-(4-chlorophenyl)-5-methyl-1,3-oxazol-4-yl]methyl}piperidine-4-carboxamide] | 10 to 1000 nM
Cc1oc(-c2cccc(Cl)c2)nc1CN1CCC(C(=O)NCCCN2CCC(Cc3cccc(Cl)c3)CC2)CC1 [Compound 911, N-{3-[4-(3-chlorobenzyl)piperidin-1-yl]propyl}-1-{[2-(3-chlorophenyl)-5-methyl-1,3-oxazol-4-yl]methyl}piperidine-4-carboxamide] | 10 to 1000 nM
Cc1oc(-c2ccc(Cl)cc2)nc1CN1CCC(C(=O)NCCCN2CCC(Cc3ccccc3)CC2)CC1 [Compound 907, N-[3-(4-benzylpiperidin-1-yl)propyl]-1-{[2-(4-chlorophenyl)-5-methyl-1,3-oxazol-4-yl]methyl}piperidine-4-carboxamide] | 10 to 1000 nM
O=C(NCCCN1CCCC1)c1ccc(C=C2Oc3ccccc3N(Cc3ccccc3C(F)(F)F)C2=O)cc1 (mixture of isomers) [Compound 801, 4-[(Z/E)-{3-oxo-4-[2-(trifluoromethyl)benzyl]-3,4-dihydro-2H-1,4-benzoxazin-2-ylidene}methyl]-N-[3-(pyrrolidin-1-yl)propyl]benzamide] | 10 to 1000 nM
O=C(NCN1CCC2CCCCC2C1)c1ccc(/C=C2\Oc3ccccc3N(Cc3ccccc3F)C2=O)cc1 (mixture of isomers) [Compound 817, 4-{(Z/E)-[4-(2-fluorobenzyl)-3-oxo-3,4-dihydro-2H-1,4-benzoxazin-2-ylidene]methyl}-N-(octahydroisoquinolin-2(1H)-ylmethyl)benzamide] | 10 to 1000 nM
Cc1oc(-c2ccc(Cl)cc2)nc1CN1CCC(C(=O)NCCCN2CCOCC2)CC1 [Compound 935, 1-{[2-(4-chlorophenyl)-5-methyl-1,3-oxazol-4-yl]methyl}-N-[3-(morpholin-4-yl)propyl]piperidine-4-carboxamide] | 10 to 1000 nM
Cc1oc(-c2ccc(Cl)cc2)nc1CN1CCC(C(=O)N(C)CCCN2CCCCCC2)CC1 [Compound 929, N-[3-(azepan-1-yl)propyl]-1-{[2-(4-chlorophenyl)-5-methyl-1,3-oxazol-4-yl]methyl}-N-methylpiperidine-4-carboxamide] | 10 to 1000 nM
O=C(NCCCN1CCCC1)c1ccc(/C=C2\Oc3ccccc3N(Cc3ccccc3F)C2=O)cc1 [Compound 483, 4-{(Z/E)-[4-(2-fluorobenzyl)-3-oxo-3,4-dihydro-2H-1,4-benzoxazin-2-ylidene]methyl}-N-[3-(pyrrolidin-1-yl)propyl]benzamide hydrate] | 10 to 1000 nM
Cc1oc(-c2ccc(Cl)cc2)nc1CN1CCC(C(=O)NCCN2CCCC2)CC1 [Compound 597, 1-{[2-(4-chlorophenyl)-5-methyl-1,3-oxazol-4-yl]methyl}-N-(2-pyrrolidin-1-ylethyl)piperidine-4-carboxamide] | 10 to 1000 nM

These compounds were tested on C57BL/6J mice (assay: Alcohol intake in Drink-in-Dark (DID) model). Details: 4-hr drinking in the dark (DID) protocol, compared with vehicle control, FIG. 2.
Assay type: in vivo
Description: FIG. 2. […] The data are presented as mean±SEM. *p<0.05, ***p<0.001 as compared with the vehicle control.
Alcohol Intake in Drink-in-Dark (DID) model (Rhodes J S, et al, Physiol Behav. (2005) 84:53-63). Mice are acclimated in animal facility and housed three to four per cage in standard cages until 1 week prior to the start of an experiment when they are transferred to individual housing. Approximately 2 weeks prior to the start of an experiment, the mice are switched to a reverse light/dark schedule such that lights turned on at 2030 h and off at 0830 h. Food (Purina 5001™) is always provided ad libitum. Water is provided ad libitum except when ethanol is substituted for water for 4 h per day. The animals are divided into 4 groups and given intraperitoneal (i.p.) injections of vehicle, and a test article (TA) at 5, 20 and 50 mg/kg body weight, respectively, starting 3 h after lights off in the animal rooms. Then the water bottles are replaced with 10 ml graduated cylinders fitted with sipper tubes containing 20% (v/v) ethanol in tap water. The ethanol cylinders remain in place for 4 h. The fluid levels are checked every 30 minutes for 4 h. After the 4-h period, the ethanol cylinders are replaced with water bottles. […] Similarly, mice are administered with TA by oral gavage and ethanol or water intake is monitored for 4 h.

Structure (SMILES) | oral intake of alcohol (20% ethanol)
Cc1oc(-c2ccc(Cl)cc2)nc1CN1CCC(C(=O)NCCCN2CCCCCC2)CC1 [Compound 901, N-[3-(azepan-1-yl)propyl]-1-{[2-(4-chlorophenyl)-5-methyl-1,3-oxazol-4-yl]methyl}piperidine-4-carboxamide] | significantly reduced
